Consider 53 compounds from patent US12581252B2, “Substituted pyrrolo[3,4-b]pyridines as PI3K-α inhibitors” (Relay Therapeutics, Inc., priority 2020, dated 2026).

Some results are limits rather than exact numbers.

H1047R PIK3CA enzyme, sequence (P42336 whole entry H1047R): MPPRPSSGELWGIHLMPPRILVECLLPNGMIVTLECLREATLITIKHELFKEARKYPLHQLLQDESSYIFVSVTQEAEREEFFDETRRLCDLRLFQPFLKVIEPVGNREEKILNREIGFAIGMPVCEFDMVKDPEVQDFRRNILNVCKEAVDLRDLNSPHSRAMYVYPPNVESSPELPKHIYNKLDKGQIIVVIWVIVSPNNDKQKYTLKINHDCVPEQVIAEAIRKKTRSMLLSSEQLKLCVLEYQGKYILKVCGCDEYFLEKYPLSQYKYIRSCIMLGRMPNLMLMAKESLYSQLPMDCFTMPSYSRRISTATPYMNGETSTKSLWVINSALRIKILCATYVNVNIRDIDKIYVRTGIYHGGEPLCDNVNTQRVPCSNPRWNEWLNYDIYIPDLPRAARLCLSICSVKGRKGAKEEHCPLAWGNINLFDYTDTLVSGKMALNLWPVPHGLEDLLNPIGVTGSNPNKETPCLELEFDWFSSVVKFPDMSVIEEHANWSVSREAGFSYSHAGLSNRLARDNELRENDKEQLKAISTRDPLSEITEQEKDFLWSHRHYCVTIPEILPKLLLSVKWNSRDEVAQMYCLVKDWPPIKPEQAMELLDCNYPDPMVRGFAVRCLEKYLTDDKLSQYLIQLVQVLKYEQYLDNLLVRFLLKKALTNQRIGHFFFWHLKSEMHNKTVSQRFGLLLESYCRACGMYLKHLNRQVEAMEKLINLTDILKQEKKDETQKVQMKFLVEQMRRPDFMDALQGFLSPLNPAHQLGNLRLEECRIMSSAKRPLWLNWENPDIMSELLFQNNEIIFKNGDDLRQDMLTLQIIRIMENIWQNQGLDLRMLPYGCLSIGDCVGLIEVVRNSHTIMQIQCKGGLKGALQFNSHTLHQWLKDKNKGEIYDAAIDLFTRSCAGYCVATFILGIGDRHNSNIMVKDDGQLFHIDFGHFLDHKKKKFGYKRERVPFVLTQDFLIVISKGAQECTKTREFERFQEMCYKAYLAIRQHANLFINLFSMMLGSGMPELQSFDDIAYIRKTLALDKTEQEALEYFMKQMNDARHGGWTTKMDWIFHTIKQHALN
H1047R PIK3CA enzyme, sequence (P27986 whole entry partner): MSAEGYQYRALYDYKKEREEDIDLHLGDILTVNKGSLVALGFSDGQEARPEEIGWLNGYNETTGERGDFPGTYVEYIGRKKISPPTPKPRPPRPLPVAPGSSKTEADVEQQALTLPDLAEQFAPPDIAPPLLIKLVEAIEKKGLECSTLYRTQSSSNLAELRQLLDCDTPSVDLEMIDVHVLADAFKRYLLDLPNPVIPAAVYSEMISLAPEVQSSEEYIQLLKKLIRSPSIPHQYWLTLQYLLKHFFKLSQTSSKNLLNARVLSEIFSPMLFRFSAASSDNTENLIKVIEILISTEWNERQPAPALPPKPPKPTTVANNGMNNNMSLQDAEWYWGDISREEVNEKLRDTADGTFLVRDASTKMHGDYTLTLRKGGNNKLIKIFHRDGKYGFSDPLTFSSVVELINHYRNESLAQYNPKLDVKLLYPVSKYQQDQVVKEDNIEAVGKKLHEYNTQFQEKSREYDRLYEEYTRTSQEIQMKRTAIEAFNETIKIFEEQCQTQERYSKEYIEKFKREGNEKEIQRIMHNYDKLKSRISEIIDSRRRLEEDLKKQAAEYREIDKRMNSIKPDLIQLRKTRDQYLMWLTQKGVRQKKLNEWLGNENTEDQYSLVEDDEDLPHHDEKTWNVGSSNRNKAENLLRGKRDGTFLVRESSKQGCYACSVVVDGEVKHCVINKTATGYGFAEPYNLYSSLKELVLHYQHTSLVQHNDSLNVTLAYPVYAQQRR

The target in this assay is H1047R PIK3CA enzyme (Homo sapiens, UniProt P42336, H1047R). As to the kind of experiment: ADP-Glo Biochemical PIK3CA Kinase Assay. On the procedure:
Compounds to be assayed were plated in 16 doses of 1:2 serial dilutions (20 nL volume each well) on a 1536-well plate, and the plate warmed to room temperature. […] To the well was added 1 μL of 200 μM ATP and 20 μM of diC8-PIP2 in Substrate Assay Buffer (50 mM HEPES pH7.4, 50 mM NaCl, 5 mM DTT and 0.03% CHAPS) to start the reaction, and the plate was shaken for 10 seconds, then spun briefly at 1500 rpm, and then incubated for 60 minutes at room temperature. The reaction was stopped by adding 2 μL of ADP-Glo reagent (Promega), and spinning briefly at 1500 rpm, and then incubating for 40 minutes. ADP-Glo Detection reagent (Promega) was added and the plate spun briefly at 1500 rpm, then incubated for 30 minutes.
(ADP-Glo first removes unused ATP, then detects ADP through luciferase.)
As for `Cc1cc(F)ccc1C1NC(=O)c2cccc(NC(=O)c3cc(F)cc(C(F)(F)F)c3)c21` (centres unmarked) [Compound I-327], the IC50 (as a rule, the point on the concentration scale where inhibition reaches its midpoint) was in the range of 0.5 to 1 µM.

`N#Cc1cn(Cc2cc(NC(=O)c3cc(F)cc(C(F)(F)F)c3)c3c(c2)C(=O)NC3c2cc(F)ccc2Cl)cn1` (centres unmarked) [Compound I-1719] had an IC50 not above 0.1 µM.

For the compound `O=C(Nc1cc(-c2ccc3nc(C(F)F)nn3c2)cc2c1[C@H](c1cc(F)ccc1Cl)NC2=O)c1cc(F)cc(C(F)(F)F)c1` [Compound I-1987], the IC50 is not above 0.1 µM.

Regarding `Cn1ncc(-c2cc(NC(=O)c3cc(F)cc(C(F)(F)F)c3)c3c(c2)C(=O)N[C@@H]3c2cc(F)ccc2Cl)c1C#N` [Compound I-1794], the IC50 was 1 to 10 µM.

`O=C(Nc1cc(CN2CCNCC2)cc2c1C(c1cc(F)ccc1Cl)NC2=O)c1cc(F)cc(C(F)(F)F)c1` (centres unmarked) [Compound I-350] returned an IC50 not above 0.1 µM.

Turning to `O=C1NC(c2cc(F)ccc2Cl)c2c(NC(=O)N3CCCC(c4ccccc4)C3)cc(Br)cc21` (racemic) [Compound I-597], the IC50 was 1 to 10 µM.

Compound `O=C(Nc1cccc2c1C(C1CCCN1)NC2=O)c1cc(F)cc(C(F)(F)F)c1` (racemic) [Compound I-1956] registered an IC50 of 10 to 100 µM.

For the compound `Cc1ccccc1C1NC(=O)c2cccc(NC(=O)c3csc4cncnc34)c21` (centres unmarked) [Compound I-63], the IC50 is 10 to 100 µM.

Take `O=C1N[C@H](c2cc(F)ccc2Cl)c2c(NC(=O)N3CCOCC(F)(F)C3)cc(Br)cc21` (single isomer, unassigned) [Compound I-2243]: the IC50 fell in the range of 10 to 100 µM.

Compound `N#C[C@H]1C[C@H](Oc2cc(NC(=O)c3cc(F)cc(C(F)(F)F)c3)c3c(c2)C(=O)N[C@H]3c2cc(F)ccc2Cl)C1` (stereo in doubt) [Compound I-1305] gave an IC50 not above 0.1 µM.

As to `CN=S(C)(=O)Cc1cc(NC(=O)c2cc(F)cc(C(F)(F)F)c2)c2c(c1)C(=O)NC2c1cc(F)ccc1Cl` (centres unmarked) [Compound I-1434], the IC50 is not above 0.1 µM.

`Cc1ccccc1C1NCCc2cccc(NC(=O)c3cc(F)cc(C(F)(F)F)c3)c21` (centres unmarked) [Compound I-1962] yielded an IC50 of 10 to 100 µM.

`CC(C)n1cc(-c2cc(NC(=O)c3cc(F)cc(C(F)(F)F)c3)c3c(n2)C(=O)N[C@H]3c2cc(F)ccc2Cl)ccc1=O` [Compound I-651] came in with an IC50 not above 0.1 µM.

Compound `O=C(NCCC(O)C(F)(F)F)c1cccc2c1C(c1cc(F)ccc1Cl)NC2=O` (centres unmarked) [Compound I-2094] had an IC50 of 10 to 100 µM.

As to `CC(C)(C)C1CCCN1C(=O)Nc1cccc2c1C(c1cc(F)ccc1Cl)NC2=O` (single isomer, unassigned) [Compound I-2432], the IC50 fell in the range of 0.5 to 1 µM.

Regarding `C[C@H](c1cc(NC(=O)c2cc(F)cc(C(F)(F)F)c2)c2c(c1)C(=O)N[C@H]2c1cc(F)ccc1Cl)S(C)(=O)=O` (single isomer, unassigned) [Compound I-1642], the IC50 is not above 0.1 µM.

`O=C(Nc1cc(Br)cc2c1[C@@H](c1cc(F)c(F)cc1Cl)NC2=O)c1cc(F)cc(C(F)(F)F)c1` [Compound I-676] had an IC50 of 1 to 10 µM.

`O=C1NC(c2cc(F)ccc2Cl)c2c(NC(=O)C3CCS(=O)(=O)CC3)cc(-c3ccc4ncnn4c3)cc21` (centres unmarked) [Compound I-2045] had an IC50 of 1 to 10 µM.

In the case of `O=C1N[C@@H](c2cc(F)ccc2Cl)c2c(NC(=O)C3(c4cc(F)cc(C(F)(F)F)c4)CCCC3)cc(Br)cc21` [Compound I-2071], the IC50 fell in the range of 10 to 100 µM.

As for `O=C1N[C@H](c2cc(F)ccc2Cl)c2c(NC(=O)N3C[C@](O)(C(F)(F)F)c4cc(F)ccc43)cc(-n3nccn3)cc21` (single isomer, unassigned) [Compound I-2570], the IC50 is 1 to 10 µM.

For the compound `O=C(Nc1cc(-c2cnn(S(=O)(=O)C(F)F)c2)cc2c1[C@@H](c1cc(F)ccc1Cl)NC2=O)c1cc(F)cc(C(F)(F)F)c1` [Compound I-2092], the half-inhibitory concentration (IC50) was in the range of 0.1 to 0.5 µM.

As to `O=C1Nc2cccc(NC(=O)c3cc(F)cc(C(F)(F)F)c3)c2C(c2ccccc2Cl)N1` (centres unmarked) [Compound I-1212], the IC50 is 1 to 10 µM.

For `N#Cc1nnc2ccc(-c3cc(NC(=O)c4cc(F)cc(C(F)(F)F)c4)c4c(c3)C(=O)NC4c3cc(F)ccc3Cl)cn12` (centres unmarked) [Compound I-1708], the IC50 is not above 0.1 µM.

Regarding `O=C(Nc1cccc2c1[C@@H](CC1CCCC1)NC2=O)c1cc(F)cc(C(F)(F)F)c1` [Compound I-2154], the IC50 lay within 1 to 10 µM.

`Nc1nn(C(=O)Nc2cccc3c2C(c2cc(F)ccc2Cl)NC3=O)c2ccccc12` (centres unmarked) [Compound I-2381] returned an IC50 of 0.1 to 0.5 µM.

`O=C1COC(c2cc(NC(=O)c3cc(F)cc(C(F)(F)F)c3)c3c(c2)C(=O)NC3c2cc(F)ccc2Cl)CN1` (centres unmarked) [Compound I-1308]: the IC50 was not above 0.1 µM.

In turn, `O=C(Nc1cccc2c1C(C1CCCC(O)C1)NC2=O)c1cc(F)cc(C(F)(F)F)c1` (mixture of isomers) [Compound I-2227] returned an IC50 of 10 to 100 µM.

With `COC(=O)c1cc(NC(=O)c2nsc3ccccc23)c2c(n1)C(=O)NC2c1ccccc1Cl` (centres unmarked) [Compound I-222, Methyl 4-(1,2-benzothiazole-3-amido)-5-(2-chlorophenyl)-7-oxo-5H,6H,7H-pyrrolo[3,4-b]pyridine-2-carboxylate], the IC50 is 0.1 to 0.5 µM.

In turn, `CN(C)C(=O)Cc1cc(NC(=O)c2cc(F)cc(C(F)(F)F)c2)c2c(c1)C(=O)NC2c1cc(F)ccc1Cl` (centres unmarked) [Compound I-476] registered an IC50 not above 0.1 µM.

On to `O=C(Nc1ccnc2c1C(c1cccc(F)c1F)NC2=O)c1cc(F)cc(C(F)(F)F)c1` (centres unmarked) [Compound I-174], for which the concentration for half-maximal inhibition (IC50) was 1 to 10 µM.

Consider `O=C1Cc2cccc(NC(=O)c3cc(F)cc(C(F)(F)F)c3)c2C(c2ccccc2Cl)N1` (centres unmarked) [Compound I-1178], for which the IC50 lay in the range of 1 to 10 µM.

With `N#CCc1ccc(NC(=O)N2C[C@@](O)(C(F)(F)F)c3cc(F)ccc32)c2c1C(=O)N[C@@H]2c1cc(F)ccc1Cl` (single isomer, unassigned) [Compound I-2617], the IC50 was 1 to 10 µM.

Regarding `N#Cc1cc(Oc2cc(NC(=O)c3cc(F)cc(C(F)(F)F)c3)c3c(c2)C(=O)NC3c2cc(F)ccc2Cl)ccn1` (centres unmarked) [Compound I-1130], the IC50 was not above 0.1 µM.

For the compound `O=C(Nc1cccc2c1C(C1NC3CCC1C3)NC2=O)c1cc(F)cc(C(F)(F)F)c1` (centres unmarked) [Compound I-2076], the IC50 was 10 to 100 µM.

In the case of `O=C(Nc1cc(C[n+]2ccccc2)cc2c1[C@H](c1cc(F)ccc1Cl)NC2=O)c1cc(F)cc(C(F)(F)F)c1` (racemic) [Compound I-1321], the IC50 was not above 0.1 µM.

Take `O=C(Nc1cc(C(O)(O)C(F)(F)F)cc2c1C(c1cc(F)ccc1Cl)NC2=O)c1cc(F)cc(C(F)(F)F)c1` (centres unmarked) [Compound I-484]: the IC50 was 0.1 to 0.5 µM.

`O=C1N[C@H](c2cc(F)ccc2Cl)c2c(NC(=O)N3C[C@@H](O)c4cccc(F)c43)cccc21` (single isomer, unassigned) [Compound I-2208] yielded an IC50 of 10 to 100 µM.

`O=C1N[C@H](c2cc(F)ccc2Cl)c2c(NC(=O)[C@H]3CC[C@@H](O)C3)cc(Br)cc21` (single isomer, unassigned) [Compound I-2103] registered an IC50 of 10 to 100 µM.

In turn, `O=C1N[C@@H](c2cc(F)ccc2Cl)c2c(NC(=O)N3C[C@H](O)c4cc(F)ccc43)cc(-c3cnn(C(F)F)c3)cc21` (single isomer, unassigned) [Compound I-2478] showed an IC50 of 0.1 to 0.5 µM.

Consider `O=C(Nc1cc(Br)cc2c1C(c1cc(F)ccc1Cl)NC2=O)c1cc(F)c(F)c(Cl)c1` (centres unmarked) [Compound I-564], for which the IC50 is not above 0.1 µM.

The compound `CC(c1cc(NC(=O)c2cc(F)cc(C(F)(F)F)c2)c2c(c1)C(=O)NC2c1cc(F)ccc1Cl)[S+](C)[O-]` (racemic) [Compound I-1472] came in with an IC50 of 0.1 to 0.5 µM.

For `O=C1NC(c2cc(F)ccc2Cl)c2c(NC(=O)[C@H]3C[C@H](O)C[C@@H](C(F)(F)F)C3)cc(Br)cc21` (some centres unmarked) [Compound I-2080], the IC50 lay in the range of 1 to 10 µM.

For the compound `CC(C)(O)CNc1cc(NC(=O)c2cc(F)cc(C(F)(F)F)c2)c2c(c1)C(=O)NC2c1cc(F)ccc1Cl` (centres unmarked) [Compound I-730], the IC50 was not above 0.1 µM.

In the case of `N#Cc1ccncc1-c1cc(NC(=O)c2cc(F)cc(C(F)(F)F)c2)c2c(c1)C(=O)NC2c1cc(F)ccc1Cl` (centres unmarked) [Compound I-1537], the IC50 is not above 0.1 µM.

As to `CC(C)(O)c1cnc2ccc(-c3cc(NC(=O)c4cc(F)cc(C(F)(F)F)c4)c4c(c3)C(=O)N[C@@H]4c3cc(F)ccc3Cl)cc2c1` [Compound I-1605], the IC50 fell in the range of 10 to 100 µM.

`Cc1ccccc1C1NC(=O)Nc2cccc(OC(=O)c3csc4ccccc34)c21` (centres unmarked) [Compound I-295] registered an IC50 of 1 to 10 µM.

With `C[C@](O)(CC#N)c1cc(NC(=O)c2cc(F)cc(C(F)(F)F)c2)c2c(c1)C(=O)N[C@@H]2c1cc(F)ccc1Cl` (single isomer, unassigned) [Compound I-1396], the IC50 fell in the range of 1 to 10 µM.

`Cn1cc(-c2cc(NC(=O)c3cc(F)cc(C(F)(F)F)c3)c3c(c2)C(=O)NC3c2cc(F)ccc2Cl)cnc1=O` (centres unmarked) [Compound I-1404] displayed an IC50 not above 0.1 µM.

With `N#CC[C@@H](O)c1cc(NC(=O)c2cc(F)cc(C(F)(F)F)c2)c2c(c1)C(=O)N[C@@H]2c1cc(F)ccc1Cl` (single isomer, unassigned) [Compound I-1391], the IC50 is 1 to 10 µM.

For the compound `Nc1cc(-c2ccc3ncnn3c2)cc2c1C(c1cc(F)ccc1Cl)NC2=O` (centres unmarked) [Compound I-1671], the IC50 was 10 to 100 µM.

In the case of `C[C@@H](O)c1cc(-c2ccc3ncnn3c2)cc2c1[C@@H](c1cc(F)ccc1Cl)NC2=O` (single isomer, unassigned) [Compound I-2230], the IC50 was 10 to 100 µM.

With `O=C(Nc1cc(-c2cnc(OCCO)nc2)cc2c1C(c1cc(F)ccc1Cl)NC2=O)c1cc(F)cc(C(F)(F)F)c1` (centres unmarked) [Compound I-1474], the IC50 was not above 0.1 µM.

The compound `CC(C)[C@]1(O)CN(C(=O)Nc2cccc3c2[C@@H](c2cc(F)ccc2Cl)NC3=O)c2ccc(F)cc21` (single isomer, unassigned) [Compound I-2455] yielded an IC50 of 1 to 10 µM.
